From patent publication US11618749B2, “Compounds and compositions for treating conditions associated with STING activity” (IFM Due, Inc., priority 2018, dated 2023)

The compounds below were run against T1, hSTING (Homo sapiens, UniProt Q86WV6, G230A/H232R/R293Q/R71H) (assay: STING reporter assay (luciferase reporter) in THP1-Dual KO-IFNAR2 cells activated with 2′3′cGAMP). Details: 15 μM 2′3′cGAMP, 24 h, luciferase reporter activity.
T1 construct: host or cells: THP1-Dual KO-IFNAR2 cells
Format: cell-based
Method: STING pathway activation by the compounds described herein is measured using THP1-Dual™ cells (KO-IFNAR2).
THP1-Dual™ KO-IFNAR2 Cells (obtained from invivogen) are maintained in RPMI, 10% FCS, 5 ml P/S, 2 mM L-glut, 10 mM Hepes, and 1 mM sodium pyruvate. Compounds are spotted in empty 384 well tissue culture plates (Greiner 781182) by Echo for a final concentration of […]. Cells are plated into the TC plates at 40 μL per well, 2×10E6 cells/mL. For activation with STING ligand, 2′3′cGAMP (MW 718.38, obtained from Invivogen), is prepared in Optimem media.
The following solutions are prepared for each 1×384 plate: • Solution A: 2 mL Optimem with one of the following stimuli: • 60 uL of 10 mM 2′3′cGAMP→150 μM stock • Solution B: 2 mL Optimem with 60 μL Lipofectamine 2000→Incubate 5 min at RT
2 mL of solution A and 2 ml Solution B is mixed and incubated for 20 min at room temperature (RT). 20 uL of transfection solution (A+B) is added on top of the plated cells, with a final 2′3′cGAMP concentration of 15 μM. The plates are then centrifuged immediately at 340 g for 1 minute, after which they are incubated at 37° C., 5% CO2, >98% humidity for 24 h. Luciferase reporter activity is then measured. EC50 values were calculated by using standard methods known in the art.
Luciferase Reporter Assay:
10 μL of supernatant from the assay is transferred to white 384-plate with flat bottom and squared wells. one pouch of QUANTI-Luc™ Plus is dissolved in 25 mL of water. 100 μL of QLC Stabilizer per 25 mL of QUANTI-Luc™ Plus solution was added. 50 μL of QUANTI-Luc™ Plus/QLC solution per well is then added. Luminescence is measured on a Platereader (e.g., Spectramax I3X (Molecular Devices GF3637001)).
Luciferase reporter activity is then measured. EC50 values are calculated by using standard methods known in the art.

T1 sequence (Q86WV6 whole entry R71H/G230A/H232R/R293Q): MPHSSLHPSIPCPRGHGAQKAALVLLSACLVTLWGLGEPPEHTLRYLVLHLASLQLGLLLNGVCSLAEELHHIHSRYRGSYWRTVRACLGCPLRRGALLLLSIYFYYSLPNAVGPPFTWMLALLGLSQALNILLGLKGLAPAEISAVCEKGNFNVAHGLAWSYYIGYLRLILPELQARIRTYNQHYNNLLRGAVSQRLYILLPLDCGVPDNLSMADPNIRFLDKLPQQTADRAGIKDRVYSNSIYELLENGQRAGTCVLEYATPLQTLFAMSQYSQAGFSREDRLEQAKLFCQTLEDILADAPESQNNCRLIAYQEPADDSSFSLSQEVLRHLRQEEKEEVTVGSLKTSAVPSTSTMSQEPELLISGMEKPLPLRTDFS

CCc1ccc(CNC(=O)Nc2c[nH]c3ncccc23)cc1 [Compound 171] and CCc1ccc(NC(=O)Nc2c[nH]c3ncccc23)nc1 [Compound 169] fall in the same range of EC50: 5 to 100 µM for the first, 5 to 100 µM for the second.

Compared with CN(C(=O)Nc1c[nH]c2cccnc12)c1ccc(C(F)(F)F)cc1 [Compound 154], O=C(Nc1cccc(C(F)(F)F)c1)Nc1c[nH]c2cccnc12 [Compound 332] is lower in EC50: 5 to 100 µM for the first, 1 to 5 µM for the second.

Compared with O=C(Nc1ccc(C(F)(F)F)cc1)Nc1c[nH]c2cnccc12 [Compound 144], O=C(Nc1ccc(C(F)(F)F)cc1)Nc1c[nH]c2ncc(Cl)cc12 [Compound 283] is lower in EC50: 1 to 5 µM for the first, 0.04 to 0.2 µM for the second.

Compared with CCCCC1CCC(NC(=O)Nc2c[nH]c3cnccc23)CC1 (stereo not shown) [Compound 314], CCCCC1CCC(NC(=O)Nc2c[nH]c3ccncc23)CC1 (stereo not shown) [Compound 317] is lower in EC50: 1 to 5 µM for the first, 0.2 to 1 µM for the second. The second is the more potent here.

CCCCc1ncc(NC(=O)Nc2c[nH]c3ncc(F)cc23)cc1F [Compound 255] and CCCCc1ccc(NC(=O)Nc2c[nH]c3ncc(F)cc23)nc1 [Compound 259] fall in the same range of EC50: 0.2 to 1 µM for the first, 0.2 to 1 µM for the second.

Compared with Cc1ccc2[nH]cc(NC(=O)Nc3ccc(C(F)(F)F)cc3)c2n1 [Compound 329], C#Cc1ccc2[nH]cc(NC(=O)Nc3ccc(C(F)(F)F)cc3)c2n1 [Compound 324, 1-(5-ethynyl-1H-pyrrolo[3,2-b]pyridin-3-yl)-3-(4-(trifluoromethyl)phenyl)urea] is higher in EC50: 0.2 to 1 µM for the first, 5 to 100 µM for the second.

O=C(Nc1c[nH]c2ncccc12)N1CCCC(c2ccccc2)C1 (stereo not shown) [Compound 307] and O=C(Nc1c[nH]c2ncccc12)N1CC(c2ccccc2)C1 [Compound 289] fall in the same range of EC50: 5 to 100 µM for the first, 5 to 100 µM for the second.

O=C(Nc1ccc(C(F)(F)F)cc1)Nc1c[nH]c2ncc(-c3ccccc3)cc12 [Compound 143, 1-(5-phenyl-1H-pyrrolo[2,3-b]pyridin-3-yl)-3-(4-(trifluoromethyl)phenyl)urea] and O=C(Nc1ccc(C(F)(F)F)cc1)Nc1c[nH]c2ncc(-c3cccnc3)cc12 [Compound 210] fall in the same range of EC50: 1 to 5 µM for the first, 1 to 5 µM for the second.

O=C(Nc1ncc(-c2ccccc2)s1)Nc1c[nH]c2ncc(F)cc12 [Compound 293] and O=C(Nc1cnc(-c2ccccc2)s1)Nc1c[nH]c2ncc(F)cc12 [Compound 295] fall in the same range of EC50: 0.2 to 1 µM for the first, 0.2 to 1 µM for the second.

First: CCc1ccc(NC(=O)Nc2c[nH]c3ncncc23)cc1 [Compound 183b]
Second: CCc1cnc2[nH]cc(NC(=O)Nc3ccc(C(F)(F)F)cc3)c2c1 [Compound 268, 3-[5-ethyl-1H-pyrrolo[2,3-b]pyridin-3-yl]-1-[4-(trifluoromethyl)phenyl] urea]
The EC50 of the first is higher: 5 to 100 µM for the first, 0.2 to 1 µM for the second. The second is the more potent here.

First: O=C(Nc1ccc(C(F)(F)F)cc1)Nc1c[nH]c2ncc(-c3ccc(OCC4CC4)nc3)cc12 [Compound 211]
Second: CN1CCN(c2ccc(-c3cnc4[nH]cc(NC(=O)Nc5ccc(C(F)(F)F)cc5)c4c3)cc2)CC1 [Compound 197]
The EC50 of the first is lower: 0.2 to 1 µM for the first, 1 to 5 µM for the second.

First: CCCCC1CCC(NC(=O)Nc2c[nH]c3cccnc23)CC1 (stereo not shown) [Compound 322]
Second: O=C(Nc1c[nH]c2cccnc12)NC1CCC(C(F)(F)F)CC1 (stereo not shown) [Compound 141]
The EC50 of the first is lower: 1 to 5 µM for the first, 5 to 100 µM for the second.

First: O=C(Nc1ccc(C(F)(F)F)cc1)Nc1c[nH]c2ncc(C3=CCOCC3)cc12 [Compound 212]
Second: O=C(Nc1ccc(C(F)(F)F)cc1)Nc1c[nH]c2nccc(C3=CCOCC3)c12 [Compound 203]
The EC50 of the first is lower: 1 to 5 µM for the first, 5 to 100 µM for the second.

First: O=C(Nc1c[nH]c2cnccc12)NC1CCC(c2ccccc2)CC1 (stereo not shown) [Compound 137]
Second: O=C(Nc1c[nH]c2ncc(F)cc12)NC1CCC(Cc2ccccc2)CC1 (stereo not shown) [Compound 248]
The EC50 of the first is higher: 1 to 5 µM for the first, 0.2 to 1 µM for the second. The second is the more potent here.

Compared with COc1nccc2[nH]cc(NC(=O)Nc3ccc(C(F)(F)F)cc3)c12 [Compound 320, 1-(4-methoxy-1H-pyrrolo[3,2-c]pyridin-3-yl)-3-(4-(trifluoromethyl)phenyl)urea], O=C(Nc1ccc(C(F)(F)F)cc1)Nc1c[nH]c2cc(F)cnc12 [Compound 330] is lower in EC50: 5 to 100 µM for the first, 1 to 5 µM for the second. The second is the more potent here.

First: O=C(Nc1c[nH]c2cccnc12)NC1CCC2(CCC2)CC1 [Compound 142]
Second: O=C(Nc1c[nH]c2cccnc12)NC1CC2CCC(C2)C1 (stereo not shown) [Compound 157]
The EC50 of the first is lower: 1 to 5 µM for the first, 5 to 100 µM for the second.

First: O=C(Nc1ccc(C(F)(F)F)cc1)Nc1c[nH]c2c(Cl)ncnc12 [Compound 183]
Second: O=C(Nc1ccc(C(F)(F)F)cc1)Nc1c[nH]c2ncc(F)cc12 [Compound 173, 1-(5-fluoro-1H-pyrrolo[2,3-b]pyridin-3-yl)-3-(4-(trifluoromethyl)phenyl)urea]
The EC50 of the first is higher: 5 to 100 µM for the first, 0.04 to 0.2 µM for the second.

First: CCCCc1ccc(N(CC)C(=O)Nc2c[nH]c3ncc(F)cc23)cc1 [Compound 245]
Second: C#Cc1cccc(NC(=O)Nc2c[nH]c3ncc(F)cc23)c1 [Compound 251]
The EC50 of the first is higher: 5 to 100 µM for the first, 0.2 to 1 µM for the second. The second is the more potent here.

First: O=C(Nc1ccc(C2CCCCC2)nc1)Nc1c[nH]c2ccncc12 [Compound 315]
Second: O=C(Nc1ccc(C2CCCCC2)cn1)Nc1c[nH]c2ccncc12 [Compound 316]
The EC50 of the first is higher: 1 to 5 µM for the first, 0.2 to 1 µM for the second.

First: CCCCC1CCCN(C(=O)Nc2c[nH]c3ncccc23)C1 (stereo not shown) [Compound 167]
Second: CCCCC1CCN(C(=O)Nc2c[nH]c3cccnc23)CC1 [Compound 140]
The EC50 of the first is higher: 5 to 100 µM for the first, 1 to 5 µM for the second. The second is the more potent here.

Nc1cnc2[nH]cc(NC(=O)N3CC(c4ccccc4)C3)c2c1 [Compound 249] and O=C(Nc1c[nH]c2ncccc12)NC1CCCc2ccccc21 (stereo not shown) [Compound 135] fall in the same range of EC50: 5 to 100 µM for the first, 5 to 100 µM for the second.

O=C(Nc1c[nH]c2ccncc12)NC1CC2CCC(C2)C1 (stereo not shown) [Compound 161] and O=C(Nc1c[nH]c2ncccc12)NC1CC2CCC(C2)C1 (stereo not shown) [Compound 160] fall in the same range of EC50: 5 to 100 µM for the first, 5 to 100 µM for the second.

O=C(Nc1ccc(C(F)(F)F)cc1)Nc1c[nH]c2ccc(-c3ccccc3)nc12 [Compound 328, 1-(5-phenyl-1H-pyrrolo[3,2-b]pyridin-3-yl)-3-(4-(trifluoromethyl)phenyl)urea] and CC(C)(O)c1cccc(-c2ccnc3[nH]cc(NC(=O)Nc4ccc(C(F)(F)F)cc4)c23)c1 [Compound 205] fall in the same range of EC50: 5 to 100 µM for the first, 5 to 100 µM for the second.

Compared with O=C(Nc1ccc(C2CCCCC2)cn1)Nc1c[nH]c2cnccc12 [Compound 313], O=C(Nc1ccc(C2CCCCC2)cn1)Nc1c[nH]c2ncc(F)cc12 [Compound 261] is lower in EC50: 1 to 5 µM for the first, 0.04 to 0.2 µM for the second.

Compared with O=C(Nc1c[nH]c2ncc(F)cc12)NC1CCC2(CCCCC2)CC1 [Compound 300], O=C(Nc1c[nH]c2ncc(F)cc12)NC1CCN(CC(F)(F)F)CC1 [Compound 252] is higher in EC50: 0.2 to 1 µM for the first, 5 to 100 µM for the second.

First: Cn1cc(-c2cnc3[nH]cc(NC(=O)Nc4ccc(C(F)(F)F)cc4)c3c2)c(C(F)(F)F)n1 [Compound 198]
Second: CN1CC=C(c2ccnc3[nH]cc(NC(=O)Nc4ccc(C(F)(F)F)cc4)c23)CC1 [Compound 195]
The EC50 of the first is lower: 1 to 5 µM for the first, 5 to 100 µM for the second.

O=C(Nc1c[nH]c2ncc(-c3ccccc3)cc12)NC1CCC(C(F)(F)F)CC1 (stereo not shown) [Compound 162, 3-[5-phenyl-1H-pyrrolo[2,3-b]pyridin-3-yl]-1l-[4-(trifluoromethyl)cyclohexyl]urea] and O=C(Nc1ccc(C(F)(F)F)nc1)Nc1c[nH]c2ncccc12 [Compound 257] fall in the same range of EC50: 5 to 100 µM for the first, 5 to 100 µM for the second.

First: O=C(Nc1ccc(C(F)(F)F)c(Cl)c1)Nc1c[nH]c2ncc(F)cc12 [Compound 282]
Second: O=C(Nc1ccc(C2CCCCC2)nc1)Nc1c[nH]c2ncc(F)cc12 [Compound 272]
The EC50 of the first is higher: 0.2 to 1 µM for the first, 0.04 to 0.2 µM for the second.

O=C(Nc1cc(F)cc(F)c1)Nc1c[nH]c2ncccc12 [Compound 299] and O=C(Nc1ccc(C(F)(F)F)nc1)Nc1c[nH]c2ccncc12 [Compound 318] fall in the same range of EC50: 5 to 100 µM for the first, 5 to 100 µM for the second.
